Values of other authors in patent publication US20050208134A1, “Biocompatible polymeric beads and use thereof” (priority 2004, published 2005).

Settings: humans, administered orally

With `O=C(CC1NCCCC1O)Cn1cnc2cc(Br)c(Cl)cc2c1=O` (stereo not shown) [halofuginone] as the compound, how does the “maximum tolerated dose with no adverse effects observed” value read?
The value was 1 mg/day.
